Results on four molecules are retold here after paper PMC3258254, “Intestinal Absorption and First-Pass Metabolism of Polyphenol Compounds in Rat and Their Transport Dynamics in Caco-2 Cells” (PLoS ONE, 2012).

The nature of series [1]: Pharmacokinetics in rat plasma after oral administration of polyphenols. The note with it: for AUC / Cmax: 50 µmol•kg^–1; for K / T1/2Ke / Tpeak: rat plasma, oral 50 µmol•kg^–1, mean ± SD, n = 6. The source says: Male Sprague-Dawley rats (70–110 days old) weighing between 270 g and 320 g were obtained from the experimental animal centre of the Fourth Military Medical University, Xi'an, China. The rats were subjected to fasting overnight, with free access to water before the day of experiment.
The polyphenol compounds solution, prepared in 0.5% sodium carboxyl methyl cellulose (CMC-Na), were orally administrated to the rats using a dose of 50 µmol•kg^–1. Blood samples were collected from the vena abdominalis under light ether anaesthesia at different times (0.08, 0.17, 0.5, 1, 2, 4, 8, 12, 16, 24 and 36 h). The samples were immediately centrifuged for 10 min at 7185 g to obtain plasma, which was then frozen at −70°C until required for analysis.
Metabolite samples were analyzed after treatment with β-glucuronidase or sulphatase [21]–[22]. The samples (0.2 mL) were extracted with 1 mL ethyl acetate by vigorous vortex mixing for 1 min, then centrifuged at 3000× g at room temperature for 10 min. The supernatants were evaporated to dryness under N2, reconstituted in 100 µL of methanol, and analyzed for the presence of polyphenols and their derivatives using liquid chromatography coupled with tandem mass spectrometry (LC/MS/MS) using a Quattro Premier system operating under MassLynx MS Software, v4.1 (Waters Corporation, Milford, MA, USA). […] Quantitation was performed by multiple reaction monitoring of the deprotonated precursor ion and the related product ion for these polyphenols using the internal standard method with peak area ratio [23]–[24]. Collision-induced dissociation was achieved using argon as the collision gas. Standard solutions of the polyphenol compounds (1 µg•mL^–1) were applied to optimize the detection conditions in the presence of mobile phase. […] The column temperature and flow rate were 25°C and 0.2 mL⋅min^–1, respectively.

The subject of the next series is rat small intestine. Briefly: In situ intestinal perfusion model (isolated rat small intestine, luminal and vascular perfusion). It is filed as in vivo. Here is the method: The rats were anaesthetized with an intra-abdominal injection of a mixture containing 40 mg•kg^–1 sodium phenobarbital. The animals were then heparinized (90 U•kg^–1) via the vena caudalis. […] Briefly, a segment of intestine between 7 and 11 cm long was identified and separated and silicone tubing was placed inside both ends of the segment. The tube at the proximal side was connected to a peristaltic pump for luminal perfusion.

A short description of series [2]: Transport (permeability, Papp) across Caco-2 cell monolayers. The format is in vitro ADME, human. The note with it: human, mean ± SD; for Papp A→B at 50 µM: Caco-2, apical to basolateral, n = 6, read-out: Papp AP to BL; for Papp B→A at 50 µM: Caco-2, basolateral to apical, n = 6, read-out: Papp BL to AP. As for the experimental part:
(§1) Caco-2 cells, derived from human colorectal adenocarcinoma cells, were obtained from the American Type Culture Collection (Manassas, VA, USA) and maintained in plastic culture flasks (Corning Costar, Cambridge, MA, USA). The cells were cultured in Dulbecco's modified Eagle's minimal essential medium supplemented with 1% non-essential amino acids, 1% L-glutamine, 20% foetal bovine serum, 100 U•mL^–1 penicillin, and 0.1 mg•mL^–1 streptomycin, and were grown in a humidified atmosphere of 5% CO2 in air at 37°C (Figure S1). Cells were subcultured to 80% confluency.
(§2) For transport experiments, Caco-2 cells were seeded at a cell density of 1×10^5 cells•cm^−2 on Millicell Cell Culture Inserts (Millipore, Billerica, MA, USA). Cells were used 19 to 21 days after seeding, by which time the transepithelial electrical resistance value was >300 Ω•cm^–2. The culture medium was replaced with fresh medium 24 h before the transport experiments. Polyphenol compounds (50 µM) were added from the apical or basolateral side to evaluate the transport characteristics of the cells. To investigate the role of different transporters, Caco-2 cells were preincubated with verapamil (an inhibitor of P-glycoprotein), cyclosporine A (a dual inhibitor of P-glycoprotein and multi-drug resistance protein 2, MRP2), or phloridzin, (a selective inhibitor of sodium/glucose cotransporter 1, SGLT1) to investigate the absorptive and transport changes of the polyphenol compounds [19]–[20]. The samples were collected and stored at −70°C until needed for analysis.

Series [3] relates to Caco-2 cells. The description is as above. It is filed as in vitro ADME, human. The note with it: 50 µM, parent compound. As for the experimental part: as §1, §2
Series [4] relates to Caco-2 cells. Kind of series: Cellular uptake / intracellular accumulation in Caco-2 cells, with or without transporter inhibitors. The format is in vitro ADME, human. The note with it: for Intracellular accumulation / uptake in the presence of phloridzin: 50 µM phloridzin (SGLT1 inhibitor); for Time of maximum intracellular accumulation (given as Cmax): 50 µM, parent compound in Caco-2 cells; for Intracellular accumulation after pre-treatment with cyclosporine A: 100 µM cyclosporine A (P-glycoprotein and MRP2 inhibitor); for Intracellular accumulation after pre-treatment with verapamil: 100 µM verapamil (P-glycoprotein inhibitor). Here is the method:
Caco-2 cells, derived from human colorectal adenocarcinoma cells, were obtained from the American Type Culture Collection (Manassas, VA, USA) and maintained in plastic culture flasks (Corning Costar, Cambridge, MA, USA). […] Cells were subcultured to 80% confluency. For all cellular uptake studies of polyphenols, Caco-2 cells were seeded at a cell density of 6×10^5 cells•cm^–2 on six-well plastic plates. Cells were used 14 to 21 days after seeding. The culture medium was replaced with fresh medium 24 h before the uptake experiments. Polyphenol compounds (50 µM) were added to evaluate the uptake characteristics of Caco-2 cells. To determine the intracellular concentration of polyphenols, the cell lysate was obtained by subjecting the drug-containing cells to three freeze-thaw cycles in liquid nitrogen. Protein concentrations were measured using the Bradford method with bovine serum albumin as a standard. For transport experiments, Caco-2 cells were seeded at a cell density of 1×10^5 cells•cm^−2 on Millicell Cell Culture Inserts (Millipore, Billerica, MA, USA). […] The culture medium was replaced with fresh medium 24 h before the transport experiments. Polyphenol compounds (50 µM) were added from the apical or basolateral side to evaluate the transport characteristics of the cells. […] The samples were collected and stored at −70°C until needed for analysis.
A general note: Caco-2 cells form a polarised layer with tight junctions and transporters.

Where [5] appears, read: male, Sprague-Dawley, rat, plasma, po.
The mark [6] stands for this setting: male, Sprague-Dawley, rat, in vivo, po.
The mark [7] stands for this setting: 1500 nmol applied, perfusion 60 min.
[8] abbreviates: 1500 nmol applied, perfusion 60 min, mean ± SD, n = 3.

What is called AUC is concentration integrated over time. What is called Cmax is the maximum level reached in the sampled fluid or tissue.

Turning to `O=c1cc(-c2ccc(O)cc2)oc2cc(O)cc(O)c12` [Apigenin], in series [1] (setting [5]), the AUC amounted to 659 ± 25 ng·h/mL and the Cmax stood at 42 ± 2 ng/mL. For the same molecule, in series [1], the K is 0.16±0.02 ^1 h^−1, the T1/2Ke came out at 2.11 ± 0.03 h and the Tpeak was determined as 0.50 ± 0.01 h. Moreover, the “Total percentage of parent compound and metabolites, luminal side compared with vascular side” value (“Total percentage” for short) in the series on rat small intestine (rat, in vivo) is reported as “two- to three-fold greater”. In the series with rat small intestine (rat, in vivo, 60 min), the “Luminal effluent, % of delivered dose” value is recorded as 53.87 ^2%. For the same molecule, in series [2], the Papp A→B at 50 µM came to 13.8 ± 1.21 ×10⁻⁶ cm/s and the Papp B→A at 50 µM came to 12.9 ± 2.54 ×10⁻⁶ cm/s. Besides, in the series on Caco-2 cells [3], the “Permeability value BL to AP compared with AP to BL” value was “no changes”. Further, in the series on Caco-2 cells [4], the “Intracellular accumulation / uptake in the presence of phloridzin” value (shortened to “Intracellular accumulation / uptake”) was “no changes were observed”, the “Time of maximum intracellular accumulation (given as Cmax)” value (from here on “Time”) was determined as 10 min, the “Intracellular accumulation after pre-treatment with cyclosporine A” value is “clearly increased” and the “Intracellular accumulation after pre-treatment with verapamil” value is on record as “clearly increased”.

In series [1] (setting [5]), `Cc1cc(O)c2c(c1)C(=O)c1cccc(O)c1C2=O` [Chrysophanol] registered an AUC of 1720 ± 57 ng·h/mL and a Cmax of 326 ± 18 ng/mL. In series [1], this molecule showed a K of 0.08 ± 0.01 h⁻¹, a T1/2Ke of 8.00 ± 0.28 h and a Tpeak of 3.00 ± 0.01 h. Further, in the series on rat small intestine (rat, in vivo), the “Total percentage” value is listed as “no clear differences”. Further, in the series with rat small intestine (rat, in vivo, 60 min), the “Luminal effluent, % of delivered dose” value is recorded as 36.82 ^2% and the “Vascular side, % of delivered dose” value is given as 32.22 ^2%. Besides, in series [2], the Papp A→B at 50 µM worked out at 10.8 ± 2.34 ×10⁻⁶ cm/s and the Papp B→A at 50 µM turned out to be 27.4 ± 4.19 ×10⁻⁶ cm/s. In the series with Caco-2 cells [3], the “Permeability value BL to AP compared with AP to BL” value is given as “much greater (by a factor of two)”. Further, in the series with Caco-2 cells [4], the “Intracellular accumulation / uptake” value is “reduced the cellular uptake”, the “Time” value is listed as 10 min, the “Intracellular accumulation after pre-treatment with cyclosporine A” value was “increased the uptake” and the “Intracellular accumulation after pre-treatment with verapamil” value is listed as “increased the uptake”.

For the molecule `Cc1cc(O)c2c(c1)C(=O)c1cc(O)cc(O)c1C2=O` [Emodin], in series [1] (setting [6]), the “Plasma concentration of glucuronidated metabolites relative to sulphated metabolites” value was found to be 10 fold, the area under the curve (AUC) turned out to be 809 ± 17 ng·h/mL and the highest level (Cmax) was 72 ± 6 ng/mL. In addition, in series [1], the K amounted to 0.23 ± 0.04 h⁻¹, the T1/2Ke was found to be 2.93 ± 0.04 h and the Tpeak came out at 0.50 ± 0.01 h. In the series on rat small intestine (isolated intestine perfusion, estimated), the “Total percentage” value is “two- to three-fold greater”. For the same molecule, in series [2], the Papp A→B at 50 µM was 9.52 ± 1.45 ×10⁻⁶ cm/s and the Papp B→A at 50 µM turned out to be 24.4 ± 3.22 ×10⁻⁶ cm/s. In the series with Caco-2 cells [3], the “Permeability value BL to AP compared with AP to BL” value is given as “much greater (by a factor of two)”. Further, in the series with Caco-2 cells [4], the “Intracellular accumulation / uptake” value is listed as “reduced the cellular uptake”, the “Time” value is 10 min, the “Intracellular accumulation after pre-treatment with cyclosporine A” value is recorded as “increased the uptake” and the “Intracellular accumulation after pre-treatment with verapamil” value was “increased the uptake”.

In series [1] (setting [5]), `Oc1ccc(/C=C/c2cc(O)cc(O)c2)cc1` [Resveratrol] gave an AUC of 98 ± 7 ng·h/mL and a Cmax of 157 ± 13 ng/mL. Moreover, in series [1], the K came to 0.38 ± 0.03 h⁻¹ and the T1/2Ke worked out at 1.82 ± 0.05 h. Besides, in the series on rat small intestine (setting [7]), the “Luminal effluent, % of delivered dose” value is reported as 35.37 ^2% and the “Vascular side, % of delivered dose” value is given as 12.74 ^2%. Further, in the series with rat small intestine (setting [8]), the “Luminal effluent, amount” value turned out to be 536 ± 27 nmol and the “Vascular side, amount” value was 193 ± 11 nmol. Also, in series [2], the Papp A→B at 50 µM is 11.3 ± 3.45 ×10⁻⁶ cm/s and the Papp B→A at 50 µM worked out at 7.86 ± 2.67 ×10⁻⁶ cm/s. Further, the “Permeability value BL to AP compared with AP to BL” value in the series on Caco-2 cells [3] is “lower”. Moreover, in the series with Caco-2 cells [4], the “Intracellular accumulation / uptake” value is reported as “no changes were observed”, the “Time” value is “increased in a time-dependent manner”, the “Intracellular accumulation after pre-treatment with cyclosporine A” value is listed as “clearly increased” and the “Intracellular accumulation after pre-treatment with verapamil” value is “clearly increased”.
